Reference: patent US20260166162A1, “CARBON CHAIN SUBSTANCE FOR REGULATING TRANSMEMBRANE TRANSPORT AND FLUIDITY OF CELL MEMBRANES, AND PREPARATION AND USE THEREOF” (priority 2022, published 2026)
Where two headings read alike, the source gives them in different places.

Legend:
Type in all cases: cell-based
human pancreatic β-cells = assay: Insulin secretion from human islet β cells (ELISA of supernatant); conditions: 6 h
[1] = system: SARS-CoV-2 pseudovirus (B.1.526.2)
Epithelial cells = assay: Interaction of GFP-labelled complexes with cell membrane of epithelial cells (Example II-52, Table II-30); conditions: GFP-labelled complex, epithelial cells pretreated 4 hours, n=3
Experimental: The fatty acids were combined with water-soluble small molecules to form a complex, which were labeled with GFP fluorescence to detect cell membrane fluorescence. […] After the cells were stably adhered, the water-soluble fatty acid complexes in the following table were added to the cell culture medium. […] The medium with the drug was pipetted and replaced with normal DMEM medium. […] The green fluorescence intensity was analyzed by imageJ (see Table II-30, n=3).

| Compound | Insulin (human pancreatic β-cells; 2 nM) [ng/mL] | Insulin (human pancreatic β-cells; 5 nM) [ng/mL] | Insulin (human pancreatic β-cells; 10 nM) [ng/mL] | Insulin (human pancreatic β-cells; 50 nM) [ng/mL] | Insulin (human pancreatic β-cells; 50 μM) [ng/mL] | Insulin (human pancreatic β-cells; 100 μM) [ng/mL] | also measured |
| --- | --- | --- | --- | --- | --- | --- | --- |
| NC(CCCCNC(=O)CCCCCCCCCCCCCCCCCCC(=O)O)C(=O)O (stereo not drawn) [Lys-eicosanedioic acid] | 0.34 | 0.35 | 0.42 | 0.48 | 1.44 | 1.48 |  |
| Glucose-pentadecanedioic acid | 0.22 | 0.23 | 0.36 | 0.43 | 1.48 | 1.52 |  |
| Glucose-docosanedioic acid | 0.25 | 0.27 | 0.41 | 0.50 | 1.41 | 1.46 |  |
| CCCC(=O)OCC(N)C(=O)O (stereo not drawn) [Ser-n-butyric acid] | 0.41 | 0.39 | 0.49 | 0.53 | 1.42 | 1.51 |  |
| Adenosine monophosphate-lauroic acid | 0.37 | 0.38 | 0.43 | 0.49 | 1.49 | 1.53 |  |
| cholylglycine-Ricinoleic acid [cholylglycine-C18-1-OH] |  |  |  |  |  |  | Inhibition rate (%) ([1]; 2 nM, n=3): 72.59 ± 5.58%; Inhibition rate (%) ([1]; 5 nM, n=3): 74.66 ± 1.25%; Inhibition rate (%) ([1]; 10 nM, n=3): 78.34 ± 2.55%; Inhibition rate (%) ([1]; 50 nM, n=3): 89.33 ± 2.25%; Inhibition rate (%) ([1]; 100 nM, n=3): 88.76 ± 4.58%; Inhibition rate (%) ([1]; 1 μM, n=3): -32.33 ± 0.57%; Inhibition rate (%) ([1]; 10 μM, n=3): -54.26 ± 0.88%; Inhibition rate (%) ([1]; 50 μM, n=3): 71.09 ± 0.58%; Inhibition rate (%) ([1]; 100 μM, n=3): 73.68 ± 0.71% |
| CCCCCCCCCCCCCCCCCC(=O)OCC(N)C(=O)O (stereo not drawn) [Ser-stearic acid] | 0.28 | 0.30 | 0.41 | 0.48 | 1.38 | 1.41 |  |
| Uridine diphosphate glucose-pentacosanoic acid [UDPGA-C25] |  |  |  |  |  |  | Inhibition rate (%) ([1]; 0.002 µM): 46.04 ± 0.98%; Inhibition rate (%) ([1]; 0.005 µM): 49.66 ± 0.58%; Inhibition rate (%) ([1]; 0.01 µM): 48.66 ± 1.59%; Inhibition rate (%) ([1]; 0.05 µM): 59.03 ± 1.25%; Inhibition rate (%) ([1]; 0.1 µM): 88.64 ± 4.53%; Inhibition rate (%) ([1]; 1 µM): -12.03 ± 0.83%; Inhibition rate (%) ([1]; 10 µM): -64.26 ± 0.59%; Inhibition rate (%) ([1]; 50 µM): 71.36 ± 0.88%; Inhibition rate (%) ([1]; 100 µM): 92.33 ± 0.73% |
| CCCCCCCCCC(=O)OCC(N)C(=O)O (stereo not drawn) [Ser-n-decanoic acid] |  |  |  |  |  |  | Mean fluorescence intensity (Epithelial cells; 0 Hours after medium replaced): 115.4 ± 4.4; Mean fluorescence intensity (Epithelial cells; 2 Hours after medium replaced): 113.3 ± 6.4; Mean fluorescence intensity (Epithelial cells; 4 Hours after medium replaced): 108.3 ± 4.4; Mean fluorescence intensity (Epithelial cells; 8 Hours after medium replaced): 75.5 ± 2.7; Mean fluorescence intensity (Epithelial cells; 12 Hours after medium replaced): 56.4 ± 2.4; Mean fluorescence intensity (Epithelial cells; 24 Hours after medium replaced): 39.5 ± 5.7 |
